# Results as given in patent publication US20180256673A1, “METHODS FOR TREATING FUNGAL INFECTIONS” (priority 2015, published 2018).
# Values joined by “and” are separate entries in the source; they are usually repeats but may differ in a detail not shown here. Equal entries are not always repeated. Where two headings read alike, the source gives them in different places.
# How the values were obtained:
# Candida tropicalis = assay: Broth microdilution of invasive fungal isolates (CLSI M27-A3/M38-A2); type: cell-based; details: 51 isolates
# [1] = test system: C. glabrata ATCC 90030, ATCC 2001; assay: microbe, parasite or virus in culture; type: cell-based, Candida glabrata; details: for MIC fold-shift: WT to P20; for MIC: Nakaseomyces glabratus
# C. albicans NRRL Y-477 [2] = type: cell-based, Candida albicans
# Protocol: (§1) Spontaneous mutant selection. […] Three individual colonies from each strain were used to start cultures in RPMI. […] One milliliter aliquots were spread onto SDA plates containing drug with sterile glass beads. Starting viable count was enumerated by triplicate plating of serial dilutions of the starting inoculum. […] Glycerol stocks of putative mutant colonies were stored at −80° C. […] Spontaneous mutation frequencies were calculated by dividing the number of resistant colonies on a given plate by the starting inoculum plated. A subset of mutants (weighted heavily towards those selected with CMP1) were then evaluated by MIC and sequencing of FKS gene hot spot regions.
# C. krusei ATCC 6258 = type: cell-based, Candida krusei
# Protocol: as §1
# Candida krusei = assay: Broth microdilution of invasive fungal isolates (CLSI M27-A3/M38-A2); type: cell-based; details: 16 isolates
# [3] = test system: C. parapsilosis vaginal isolates; assay: Susceptibility testing of VVC clinical isolates at pH 7 and 4 (CLSI M27-A3); type: cell-based, Candida parapsilosis; details: 14 isolates, read-out: MIC90
# Candida dubliniensis = assay: Broth microdilution of invasive fungal isolates (CLSI M27-A3/M38-A2); type: cell-based; details: 11 isolates
# C. albicans NRRL Y-477 [4] = assay: Broth microdilution MIC (CLSI), Examples 3 and 4; details: Candida albicans
# Protocol: Antifungal susceptibility testing. […] MIC assays were performed in triplicate.
# [5] = test system: C. glabrata vaginal isolates; assay: Susceptibility testing of VVC clinical isolates at pH 7 and 4 (CLSI M27-A3); type: cell-based, Candida glabrata; details: Nakaseomyces glabratus, 21 isolates, read-out: MIC90
# Candida orthopsilosis = assay: Broth microdilution of invasive fungal isolates (CLSI M27-A3/M38-A2); type: cell-based; details: 10 isolates
# [6] = test system: C. tropicalis vaginal isolates; assay: Susceptibility testing of VVC clinical isolates at pH 7 and 4 (CLSI M27-A3); type: cell-based; details: Candida tropicalis, 13 isolates, read-out: MIC90
# [7] = SDA, minimum concentration to cleanly inhibit growth
structure (smiles),measurement,setting,value
"CC[C@H](C)C[C@H](C)CCCCCCCCC(=O)N[C@H]1C[C@@H](O)[C@@H](NCCN)NC(=O)[C@@H]2[C@@H](O)CCN2C(=O)[C@H]([C@H](O)CCN)NC(=O)[C@H]([C@H](O)[C@@H](O)c2ccc(O)cc2)NC(=O)[C@@H]2C[C@@H](O)CN2C(=O)[C@H]([C@@H](C)O)NC1=O [CAS, caspofungin]",Cumulative % of isolates inhibited at MIC 0.015 μg/mL,Candida tropicalis,(23.5) %
same,Cumulative % of isolates inhibited at MIC 0.03 μg/mL,Candida tropicalis,(68.6) %
same,Cumulative % of isolates inhibited at MIC 0.06 μg/mL,Candida tropicalis,(98.0) %
same,Cumulative % of isolates inhibited at MIC 0.12 μg/mL,Candida tropicalis,(100.0) %
same,Number of isolates inhibited at MIC 0.015 μg/mL,Candida tropicalis,12
same,Number of isolates inhibited at MIC 0.03 μg/mL,Candida tropicalis,23
same,Number of isolates inhibited at MIC 0.06 μg/mL,Candida tropicalis,15
same,Number of isolates inhibited at MIC 0.12 μg/mL,Candida tropicalis,1
same,MIC50,"Candida tropicalis; Candida tropicalis, read-out: MIC50",0.03 µg/mL
same,MIC90,"Candida tropicalis; Candida tropicalis, read-out: MIC90",0.06 µg/mL
same,MIC fold-shift,[1]; ATCC 2001,8
same,MIC fold-shift,[1]; ATCC 90030,128
same,MIC,"[1]; 48 h, ATCC 90030 P20-1, selecting drug ANID, Fks2 HS1 D666I, 48 h read",2 µg/mL
same,MIC,"[1]; 48 h, ATCC 90030 P20-1, selecting drug CAS, Fks2 HS1 F659I D666Y, 48 h read",32 µg/mL
same,MIC,"[1]; ATCC 2001 P20-2, selecting drug ANID, Fks1 HS1 D632Y",2 µg/mL
same,MIC,"[1]; ATCC 2001 P20-2, selecting drug CAS",2 µg/mL
same,MIC,"[1]; ATCC 2001 P20-2, selecting drug CMP1",1 µg/mL
same,MIC,"[1]; ATCC 90030 P20-2, selecting drug CMP1",1 µg/mL
same,MIC,"[1]; read-out: MIC P20, ATCC 2001, total population after 20 passages with the selecting drug, MIC of selecting drug",2 µg/mL
same,MIC,"[1]; read-out: MIC P20, ATCC 90030, total population after 20 passages with the selecting drug, MIC of selecting drug",32 µg/mL
same,Median mutation frequency,C. albicans NRRL Y-477 [2],1.14E−08
same,Plate concentration,C. albicans NRRL Y-477 [2]; [7],0.25 µg/mL
same,Freq. (replicate mutation frequency),C. albicans NRRL Y-477 [2]; replicate plates 1-3,1.25E−08 and 1.14E−08 and 7.81E−09
same,Median mutation frequency,C. krusei ATCC 6258,<3.86E−09
same,Plate concentration,C. krusei ATCC 6258; [7],0.5 µg/mL
same,Freq. (replicate mutation frequency),C. krusei ATCC 6258; replicate plates 1-3,<3.86E−09 (2×) and 3.51E−09
same,Cumulative % of isolates inhibited at MIC 0.06 μg/mL,Candida krusei,(25.0) %
same,Cumulative % of isolates inhibited at MIC 0.12 μg/mL,Candida krusei,(87.5) %
same,Cumulative % of isolates inhibited at MIC 0.25 μg/mL,Candida krusei,(100.0) %
same,Number of isolates inhibited at MIC 0.06 μg/mL,Candida krusei,4
same,Number of isolates inhibited at MIC 0.12 μg/mL,Candida krusei,10
same,Number of isolates inhibited at MIC 0.25 μg/mL,Candida krusei,2
same,MIC50,"Candida krusei; Pichia kudriavzevii, read-out: MIC50",0.12 µg/mL
same,MIC90,"Candida krusei; Pichia kudriavzevii, read-out: MIC90",0.25 µg/mL
same,MIC90,"[3]; pH 4, 24 h",1 µg/mL
same,MIC90,"[3]; pH 4, 48 h",4 µg/mL
same,MIC90,"[3]; pH 7, 24 h",1 µg/mL
same,MIC90,"[3]; pH 7, 48 h",2 µg/mL
same,Cumulative % of isolates inhibited at MIC 0.015 μg/mL,Candida dubliniensis,(9.1) %
same,Cumulative % of isolates inhibited at MIC 0.03 μg/mL,Candida dubliniensis,(54.5) %
same,Cumulative % of isolates inhibited at MIC 0.06 μg/mL,Candida dubliniensis,(100.0) %
same,Number of isolates inhibited at MIC 0.015 μg/mL,Candida dubliniensis,1
same,Number of isolates inhibited at MIC 0.03 μg/mL,Candida dubliniensis,5
same,Number of isolates inhibited at MIC 0.06 μg/mL,Candida dubliniensis,5
same,MIC50,"Candida dubliniensis; Candida dubliniensis, read-out: MIC50",0.03 µg/mL
same,MIC90,"Candida dubliniensis; Candida dubliniensis, read-out: MIC90",0.06 µg/mL
same,MIC,C. albicans NRRL Y-477 [4]; NRRLY477,0.5 µg/mL
same,MIC,"C. albicans NRRL Y-477 [4]; NRRLY477, 24 h, read-out: Broth MIC",0.25 µg/mL
same,MIC90,"[5]; pH 4, 24 h",1 µg/mL
same,MIC90,"[5]; pH 4, 48 h",2 µg/mL
same,MIC90,"[5]; pH 7, 24 h",1 µg/mL
same,MIC90,"[5]; pH 7, 48 h",2 µg/mL
same,Cumulative % of isolates inhibited at MIC 0.06 μg/mL,Candida orthopsilosis,(10.0) %
same,Cumulative % of isolates inhibited at MIC 0.12 μg/mL,Candida orthopsilosis,(40.0) %
same,Cumulative % of isolates inhibited at MIC 0.25 μg/mL,Candida orthopsilosis,(70.0) %
same,Cumulative % of isolates inhibited at MIC 0.5 μg/mL,Candida orthopsilosis,(100.0) %
same,Number of isolates inhibited at MIC 0.06 μg/mL,Candida orthopsilosis,1
same,Number of isolates inhibited at MIC 0.12 μg/mL,Candida orthopsilosis,3
same,Number of isolates inhibited at MIC 0.25 μg/mL,Candida orthopsilosis,3
same,Number of isolates inhibited at MIC 0.5 μg/mL,Candida orthopsilosis,3
same,MIC50,"Candida orthopsilosis; Lodderomyces orthopsilosis, read-out: MIC50",0.25 µg/mL
same,MIC90,"Candida orthopsilosis; Lodderomyces orthopsilosis, read-out: MIC90",0.5 µg/mL
same,MIC90,"[6]; pH 4, 24 h",1 µg/mL
same,MIC90,"[6]; pH 4, 48 h",2 µg/mL
same,MIC90,"[6]; pH 7, 24 h",1 µg/mL
same,MIC90,"[6]; pH 7, 48 h",2 µg/mL
